Converted amounts (≈) assume the structure as drawn. Where two headings read alike, the source gives them in different places.
How the values were obtained:
[1] = system: Staphylococcus aureus NRS100 (COL); assay: MIC, Table 12; format: cell-based
Procedure: (§1) Table 12 illustrates the results and the minimal inhibitory concentration (MIC) for S. aureus, Enterococcus faecalis, Pseudomonas aeruginosa, Klebsiella pneumonia, and Proteus mirabilis. The inoculum is about 1.5×10^5 CFU/mL. The minimal inhibitory concentrations (MIC) were done in Muller-Hinton II Broth with the exception of Enterococcus faecalis ATCC 29212, which was done in Brain Heart Infusion Broth. The concentration of DMSO at 200 μg/mL was 10%.

[2] = system: Enterococcus faecalis ATCC 29212; assay: MIC, Table 12; format: cell-based
Procedure: as §1

[3] = system: Staphylococcus aureus NRS1 (Mec^r. Vani); assay: MIC, Table 12; format: cell-based
Procedure: as §1

[4] = system: Staphylococcus aureus (COLVA); assay: MIC, Table 12; format: cell-based
Procedure: as §1

[5] = system: Klebsiella pneumonia ATCC 33495; assay: MIC, Table 12; format: cell-based; details: Klebsiella pneumoniae, ATCC33495, Muller-Hinton II Broth
Procedure: as §1

[6] = system: Proteus mirabilis ATCC 35659; assay: MIC, Table 12; format: cell-based; details: ATCC35659, Muller-Hinton II Broth
Procedure: as §1

[7] = system: Staphylococcus aureus ATCC 29213; assay: MIC, Table 12; format: cell-based
Procedure: as §1

[8] = system: Pseudomonas aeruginosa ATCC 27853; assay: MIC, Table 12; format: cell-based; details: ATCC27853, Muller-Hinton II Broth
Procedure: as §1

[9] = system: Escherichia coli ATCC 29194; assay: MIC, Table 12; format: cell-based; details: ATCC29194, Muller-Hinton II Broth
PBP2a = PBP2a (Staphylococcus aureus, UniProt P07944); assay: PBP2 assay (Villegas-Esterada et al.); format: biochemical; details: Table 10
Sequence of PBP2a (P07944 whole entry): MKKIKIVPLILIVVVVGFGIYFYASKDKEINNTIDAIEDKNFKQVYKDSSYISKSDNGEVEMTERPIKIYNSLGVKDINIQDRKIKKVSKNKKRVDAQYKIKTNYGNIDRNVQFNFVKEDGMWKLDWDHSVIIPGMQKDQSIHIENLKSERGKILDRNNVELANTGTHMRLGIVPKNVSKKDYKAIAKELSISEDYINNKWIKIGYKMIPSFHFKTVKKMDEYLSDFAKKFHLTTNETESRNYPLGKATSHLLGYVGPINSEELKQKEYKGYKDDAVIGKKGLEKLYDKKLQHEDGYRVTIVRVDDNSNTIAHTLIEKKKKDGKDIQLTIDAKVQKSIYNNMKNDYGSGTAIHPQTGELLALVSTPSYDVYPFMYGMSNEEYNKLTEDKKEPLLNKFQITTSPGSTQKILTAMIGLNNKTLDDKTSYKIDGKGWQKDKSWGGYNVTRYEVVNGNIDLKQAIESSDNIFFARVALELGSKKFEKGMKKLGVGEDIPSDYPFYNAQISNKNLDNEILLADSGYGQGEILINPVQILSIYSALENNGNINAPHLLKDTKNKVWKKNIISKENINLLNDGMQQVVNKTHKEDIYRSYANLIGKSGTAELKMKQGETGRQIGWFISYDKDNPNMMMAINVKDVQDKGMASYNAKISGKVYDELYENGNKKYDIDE
Procedure: (§2) β-Lactamase Assays (TEM-1, P99, and OXA-10): The activity of the compounds of the invention (inhibitors) toward β-lactamases was evaluated using 96 well plates. The reaction mixture included 10 mM sodium phosphate, pH 7.0, 150 mM sodium chloride, 0.01% Triton X-100, 100 μM nitrocefin, 10 nM of β-lactamases (class A: TEM-1; class C: P99, or class D: OXA-10), and variable concentrations of the inhibitors in a total volume of 100 μL. β-Lactamases were pre-incubated with the compounds at room temperature for 5 minutes, and the assay was initiated by the addition of nitrocefin. The inhibition of the enzyme activity by the compounds was determined by monitoring color change (from yellow to red) of nitrocefin after 20 minutes. Stock solutions of the compounds were prepared in dimethyl sulfoxide (DMSO). No more than 5% DMSO was present in assays, unless noted otherwise. B1aR Assay: The surface domain of B1aR (1 μM) was added to each inhibitor (at various concentrations) in 100 mM sodium phosphate, 50 mM sodium bicarbonate, at pH 7.0. The reaction mixtures were incubated at room temperature for 20 minutes. BOCILLIN FL, a fluorogenic ligand, was added to a concentration of 20 μM in a final volume of 20 μL. The mixtures were incubated at 37° C. for 5 minutes, at which point the reactions were quenched by the addition of 15 μL of the SDS sample buffer (125 mM Tris, 4% SDS, 20% glycerol, 2% 2-mercaptoethanol, pH 6.8), and were boiled for 4 minutes. The samples were loaded onto 15% SDS-PAGE, the gel was developed and scanned using a Storm 840® Fluorimager. The fluorescent bands of BOCILLIN FL-labeled B1aR^S were analyzed by Image Quant 5.2 software. PBP2 Assay: The PBP2 assay was performed according to the methods of Villegas-Esterada et al. (J. Am. Chem. Soc. 2008, 130, 9212-9213).

[10] = system: methicillin-resistant strains of S. aureus; assay: MIC against methicillin-resistant S. aureus (Table 15); format: cell-based; details: Staphylococcus aureus, dissolved in 100% DMSO, diluted into Mueller Hinton II Broth to final 16 μg/mL
From the text: Table 15 illustrates the inhibition of methicillin-resistant strains of S. aureus by selected compounds of the invention.

[11] = biological target: OXA-10 (class D β-lactamase) (Pseudomonas aeruginosa, UniProt P14489); assay: β-Lactamase assay (nitrocefin colour change), OXA-10; format: biochemical; details: for OXA-10: Table 10, class symbols x/xx/xxx, key not given; for IC50: nitrocefin 100 μM, 10 nM enzyme, 5 min pre-incubation, read-out: IC50s OXA-10
Sequence of OXA-10 (class D β-lactamase) (P14489 20-266, species assumed): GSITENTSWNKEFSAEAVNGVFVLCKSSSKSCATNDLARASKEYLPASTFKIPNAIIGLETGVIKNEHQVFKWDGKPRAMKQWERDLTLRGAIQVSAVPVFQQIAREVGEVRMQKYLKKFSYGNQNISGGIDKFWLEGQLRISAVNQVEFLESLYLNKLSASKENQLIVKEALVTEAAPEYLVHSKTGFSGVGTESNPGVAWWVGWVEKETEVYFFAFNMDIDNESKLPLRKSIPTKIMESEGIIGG
Procedure: as §2

[12] = biological target: P99 (class C β-lactamase) (Enterobacter cloacae, UniProt P05364); assay: β-Lactamase assay (nitrocefin colour change), P99; format: biochemical; details: for P99: Table 10, class symbols x/xx/xxx, key not given; for IC50: nitrocefin 100 μM, 10 nM enzyme, 5 min pre-incubation, read-out: IC50s P99
Sequence of P99 (class C β-lactamase) (P05364 21-381): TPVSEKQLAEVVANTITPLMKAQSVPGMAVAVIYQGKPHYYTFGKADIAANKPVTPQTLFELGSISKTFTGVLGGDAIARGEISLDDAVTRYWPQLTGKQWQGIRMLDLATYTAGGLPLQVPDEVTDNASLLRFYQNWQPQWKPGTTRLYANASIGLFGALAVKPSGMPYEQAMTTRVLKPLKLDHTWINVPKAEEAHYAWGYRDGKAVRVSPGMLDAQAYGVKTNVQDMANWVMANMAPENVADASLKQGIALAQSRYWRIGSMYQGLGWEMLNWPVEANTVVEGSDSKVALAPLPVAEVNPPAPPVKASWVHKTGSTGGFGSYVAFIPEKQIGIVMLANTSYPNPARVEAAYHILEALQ
Procedure: as §2

[13] = biological target: TEM-1 (class A β-lactamase) (Escherichia coli, UniProt P62593); assay: β-Lactamase assay (nitrocefin colour change), TEM-1; format: biochemical; details: for TEM-1: Table 10, class symbols x/xx/xxx, key not given
Sequence of TEM-1 (class A β-lactamase) (P62593 24-286 limits assumed): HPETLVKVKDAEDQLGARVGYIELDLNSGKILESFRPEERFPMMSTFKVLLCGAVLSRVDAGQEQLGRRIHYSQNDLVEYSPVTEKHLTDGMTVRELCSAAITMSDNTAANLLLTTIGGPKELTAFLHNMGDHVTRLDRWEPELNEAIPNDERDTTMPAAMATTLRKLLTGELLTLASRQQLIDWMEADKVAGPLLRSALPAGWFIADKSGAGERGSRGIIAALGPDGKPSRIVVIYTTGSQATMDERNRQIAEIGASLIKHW
Procedure: as §2

S. aureus NRS100 (Mec^R) = assay: MIC against S. aureus NRS100 (Table 14); format: cell-based, Staphylococcus aureus; details: Staphylococcus aureus, compounds dissolved in DMSO or 1% sodium carbonate, read-out: MIC
Procedure: The recited compounds were dissolved in DMSO or in 1% sodium carbonate and transferred into micro titer plate to final concentration of 1000 μg/mL.

surface domain of B1aR = surface domain of B1aR (Staphylococcus aureus, UniProt P18357); assay: B1aR assay (BOCILLIN FL labeling, SDS-PAGE); format: binding, Staphylococcus aureus (MRSA); details: Table 10; class symbols x/xx/xxx, key not given
Sequence of surface domain of B1aR (P18357 331-585): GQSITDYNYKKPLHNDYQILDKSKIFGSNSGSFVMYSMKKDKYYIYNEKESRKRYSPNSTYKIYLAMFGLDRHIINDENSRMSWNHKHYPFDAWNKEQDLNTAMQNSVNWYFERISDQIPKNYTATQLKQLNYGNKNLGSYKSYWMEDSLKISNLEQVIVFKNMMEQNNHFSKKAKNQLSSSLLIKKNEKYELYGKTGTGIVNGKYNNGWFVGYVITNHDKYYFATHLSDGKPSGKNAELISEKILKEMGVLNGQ
Procedure: as §2

[14] = Staphylococcus aureus NRS100 (COL), Muller-Hinton II Broth, read-out: MIC
[15] = ATCC29212, Enterococcus faecalis ATCC 29212, Brain Heart Infusion Broth, inoculum about 1.5×10^5 CFU/mL, read-out: MIC
[16] = Staphylococcus aureus NRS1 (Mec^r. Vani), Muller-Hinton II Broth, read-out: MIC
[17] = ATCC29213, Staphylococcus aureus ATCC 29213, Muller-Hinton II Broth, read-out: MIC

| Compound | MIC [1, 14] [µg/mL] | MIC [2, 15] [µg/mL] | MIC [3, 16] [µg/mL] | MIC ([4]; Staphylococcus aureus) [µg/mL] | MIC [5] [µg/mL] | MIC [6] [µg/mL] | MIC [7, 17] [µg/mL] | MIC [8] [µg/mL] | MIC [9] [µg/mL] | OXA-10 [11] | IC50 [11] [µM] | P99 [12] | IC50 [12] [µM] | IC50 [13] [µM] | TEM-1 [13] | MIC (S. aureus NRS100 (Mec^R)) [µg/mL] | BlaR (surface domain of B1aR) | other results |
| --- | --- | --- | --- | --- | --- | --- | --- | --- | --- | --- | --- | --- | --- | --- | --- | --- | --- | --- |
| O=C(O)c1c(Br)c(Br)c(Br)c(Br)c1C(=O)Nc1ccc(OCc2ccccc2)c(Cl)c1 [Compound 239] | 100 (≈ 143 µM) | 200 (≈ 287 µM) | 50 (≈ 71.7 µM) | 25 (≈ 35.8 µM) | 200 (≈ 287 µM) | 400 (≈ 574 µM) | 25 (≈ 35.8 µM) | 200 (≈ 287 µM) | 400 (≈ 574 µM) |  |  |  |  |  |  |  |  |  |
| CN[C@H](CC(C)C)C(=O)N[C@H]1C(=O)N[C@@H](CC(N)=O)C(=O)N[C@H]2C(=O)N[C@H]3C(=O)N[C@H](C(=O)N[C@H](C(=O)O)c4cc(O)cc(O)c4-c4cc3ccc4O)[C@H](O)c3ccc(c(Cl)c3)Oc3cc2cc(c3O[C@@H]2O[C@H](CO)[C@@H](O)[C@H](O)[C@H]2O[C@H]2C[C@](C)(N)[C@H](O)[C@H](C)O2)Oc2ccc(cc2Cl)[C@H]1O [Vancomycin, reference compound] |  |  |  | 1000 (≈ 690 µM) |  |  |  |  |  |  |  |  |  |  |  |  |  | MIC ([1]; Staphylococcus aureus, NRS100): 1 µg/mL (≈ 0.69 µM); MIC ([2]; Enterococcus faecalis, ATCC29212): 4 µg/mL (≈ 2.76 µM); MIC ([3]; Staphylococcus aureus, NRS1): 4 µg/mL (≈ 2.76 µM); MIC ([7]; Staphylococcus aureus, ATCC29213): 1 µg/mL (≈ 0.69 µM) |
| Cc1onc(-c2ccccc2)c1C(=O)N[C@@H]1C(=O)N2[C@@H]1SC(C)(C)[C@@H]2C(=O)O [Oxaxillian, reference compound] |  |  |  |  |  |  |  |  |  |  |  |  |  |  |  |  |  | MIC ([1]; Staphylococcus aureus NRS100 (COL), Muller-Hinton II Broth): 500 µg/mL (≈ 1250 µM); MIC ([2]; Enterococcus faecalis ATCC 29212, Brain Heart Infusion Broth, inoculum about 1.5×10^5 CFU/mL): 8 µg/mL (≈ 19.9 µM); MIC ([3]; Staphylococcus aureus NRS1 (Mec^r. Vani), Muller-Hinton II Broth): 500 µg/mL (≈ 1250 µM); MIC ([4]; Staphylococcus aureus (COLVA), Muller-Hinton II Broth): 500 µg/mL (≈ 1250 µM); MIC ([7]; Staphylococcus aureus ATCC 29213, Muller-Hinton II Broth): <0.5 µg/mL |
| Cc1ccccc1COc1ccc(NC(=O)c2c(Br)c(Br)c(Br)c(Br)c2C(=O)O)cc1Cl [Compound 386] |  |  |  |  |  |  |  |  |  | xxx | 31.6 ± 3.5 | xxx | 15.3 ± 1.6 | 7.4 ± 1.2 | xxx | 8 (≈ 11.2 µM) | xxx | PBP2a* (inhibitory concentration) (PBP2a): xxx; MIC [10]: 16 µg/mL (≈ 22.5 µM) |
| O=C(O)c1c(Cl)c(Cl)c(Cl)c(Cl)c1C(=O)Nc1ccc(OCc2ccccc2)c(Cl)c1 [Compound 253] | 50 (≈ 96.2 µM) | 200 (≈ 385 µM) | 50 (≈ 96.2 µM) | 50 (≈ 96.2 µM) | 200 (≈ 385 µM) | 400 (≈ 770 µM) | 50 (≈ 96.2 µM) | 200 (≈ 385 µM) | 400 (≈ 770 µM) | xxx | 222 ± 17 | xxx | 105 ± 8.7 | 32.3 ± 5.9 | xxx | > 16 | xx |  |
| CCCCCCCCOc1ccc(NC(=O)c2c(Cl)c(Cl)c(Cl)c(Cl)c2C(=O)O)cc1 [Compound 265] | 6 (≈ 11.8 µM) | 6 (≈ 11.8 µM) | 6 (≈ 11.8 µM) | 6 (≈ 11.8 µM) | 200 (≈ 394 µM) | 200 (≈ 394 µM) | 6 (≈ 11.8 µM) | 200 (≈ 394 µM) | 200 (≈ 394 µM) | xxx | 9.9 ± 0.8 | xxx | 10.3 ± 0.3 | 3.6 ± 0.5 | xxx |  |  |  |
| O=C(O)c1c(Br)c(Br)c(Br)c(Br)c1C(=O)Nc1ccc(OCc2cccc(OC(F)(F)F)c2)c(Cl)c1 [Compound 420] |  |  |  |  |  |  |  |  |  | xxx | 8.4 ± 1.1 | xx | 6.9 ± 1.5 | 1.6 ± 0.1 | xxx | 8 (≈ 10.2 µM) | xxx | PBP2a* (inhibitory concentration) (PBP2a): xxx; MIC [10]: 4 µg/mL (≈ 5.12 µM) |
| CCCCCCCCOc1ccc(NC(=O)c2c(Br)c(Br)c(Br)c(Br)c2C(=O)O)cc1 [Compound 274] | 3 (≈ 4.38 µM) | 100 (≈ 146 µM) | 3 (≈ 4.38 µM) | 3 (≈ 4.38 µM) | 200 (≈ 292 µM) | 400 (≈ 584 µM) | 3 (≈ 4.38 µM) | 200 (≈ 292 µM) | 400 (≈ 584 µM) | xxx | 5.5 ± 0.5 | xxx | 3.1 ± 0.5 | 2.4 ± 0.1 | xxx |  |  |  |
